From ChEMBL document CHEMBL1143478, “Conformationally restricted anti-plasmodial chalcones” (Bioorg Med Chem Lett, 2005)
Converted amounts (≈) assume the structure as drawn.

System: Plasmodium falciparum
Test: In vitro antimalarial activity against Plasmodium falciparum 3D7
Type: functional, organism-based

COc1ccccc1/C=C/C(=O)c1ccccc1
IC50: 7.6 µg/mL (≈ 31.9 µM)

COc1ccc(Br)cc1/C=C/C(=O)c1ccccc1C
IC50: 9.3 µg/mL (≈ 28.1 µM)

Cc1ccccc1C(=O)C1=Cc2cc(Br)ccc2OC1
IC50: 13.5 µg/mL (≈ 41 µM)

COc1ccc(C(=O)C2=Cc3ccc(OC)cc3OC2)cc1
IC50: 13.3 µg/mL (≈ 44.9 µM)

COc1cccc2c1OCC(C(=O)c1ccccc1C)=C2
IC50: 15.1 µg/mL (≈ 53.9 µM)

COc1ccc(Br)cc1/C=C/C(=O)c1ccc(C)cc1
IC50: 10 µg/mL (≈ 30.2 µM)

O=C(C1=Cc2ccccc2OC1)c1ccccc1
IC50: 4.7 µg/mL (≈ 19.9 µM)

Cc1ccc(C(=O)C2=Cc3cc(Br)ccc3OC2)cc1
IC50: 8.6 µg/mL (≈ 26.1 µM)

O=C(C1=C(c2ccccc2)CCC1)c1ccccc1
IC50: 35 µg/mL (≈ 141 µM)

COc1cccc(/C=C/C(=O)c2ccccc2C)c1OC
IC50: 11 µg/mL (≈ 39 µM)

COc1ccc(C(=O)/C=C/c2ccc(OC)cc2OC)cc1
IC50: 6 µg/mL (≈ 20.1 µM)

COc1ccc(C(=O)C2=C(c3ccc(OC)cc3)CCC2)cc1
IC50: > 100 µg/mL

COc1ccc(/C=C/C(=O)c2ccc(OC)cc2)cc1 [4,4'-DIMETHOXYCHALCONE]
IC50: 8.9 µg/mL (≈ 33.2 µM)

O=C(/C=C/c1ccccc1)c1ccccc1 [CHALCONE]
IC50: 6.7 µg/mL (≈ 32.2 µM)

C=CC(C)(C)c1cc(/C=C/C(=O)c2ccc(O)cc2)c(OC)cc1O [LICOAGROCHACONE A]
IC50: 2.2 µg/mL (≈ 6.5 µM)
